In PubChem BioAssay (NCI):
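Compound exposure: 48 hours, 5 concentrations, 96-well plates. Definition used: TGI = concentration required for complete inhibition of growth.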

Legend:
Test in all cases: inhibition of tumour cell growth, NCI panel, 48 h
[1] = test system: EKVX NSCLC
[2] = test system: HOP-62 NSCLC
[3] = test system: SN12C renal
[4] = test system: NCI-H226 lung
[5] = test system: UO-31 renal
[6] = test system: MALME-3M melanoma
[7] = test system: M14 melanoma
[8] = test system: SNB-19 CNS
[9] = test system: TK-10 renal
[10] = test system: UACC-257 melanoma
[11] = test system: CCRF-CEM leukemia
[12] = test system: COLO 205 colon
[13] = test system: MCF7 breast
[14] = test system: K-562 leukemia
[15] = test system: SF-268 CNS
[16] = test system: KM12 colon
[17] = test system: HCT-116 colon
[18] = test system: HL-60(TB) leukemia
[19] = test system: RPMI-8226 leukemia
[20] = test system: SK-MEL-2 melanoma
[21] = test system: NCI-H23 lung
[22] = test system: HT29 colon
[23] = test system: A549 NSCLC
[24] = test system: MOLT-4 leukemia
[25] = test system: T-47D breast
[26] = test system: IGROV1 ovarian
[27] = test system: SW-620 colon
[28] = test system: CAKI-1 renal
[29] = test system: MDA-MB-435
[30] = test system: SK-MEL-28 melanoma
[31] = test system: UACC-62 melanoma
[32] = test system: 786-0 renal
[33] = test system: OVCAR-8 ovarian
[34] = test system: LOX IMVI melanoma
[35] = test system: OVCAR-4 ovarian
[36] = test system: SK-MEL-5 melanoma
[37] = test system: HS 578T breast
[38] = test system: MDA-N
[39] = test system: ACHN renal
[40] = test system: NCI-H522 lung
[41] = test system: OVCAR-3 ovarian
[42] = test system: SF-295 CNS
[43] = test system: MDA-MB-231 breast
[44] = test system: OVCAR-5 ovarian
[45] = test system: NCI-H460 lung
[46] = test system: A498 renal
[47] = test system: PC-3 prostate
[48] = test system: NCI/ADR-RES ovarian
[49] = test system: RXF 393 renal
[50] = test system: U251 CNS
[51] = test system: DU-145 prostate
[52] = test system: HCT-15 colon
[53] = test system: BT-549 breast
[54] = test system: HOP-92 NSCLC
[55] = test system: SF-539 CNS
[56] = test system: HCC-2998 colon
[57] = test system: SK-OV-3 ovarian

Compound: Cc1ccc2c(=O)c(-c3nnc(NC4CCCCC4)s3)c[nH]c2n1
- TGI [1]: > 100 µM
- TGI [2]: > 100 µM
- TGI [3]: > 100 µM
- TGI [4]: > 100 µM
- TGI [5]: > 100 µM
- TGI [6]: > 100 µM
- TGI [7]: > 100 µM
- TGI [8]: > 100 µM
- TGI [9]: > 100 µM
- TGI [10]: > 100 µM
- TGI [11]: > 100 µM
- TGI [12]: > 100 µM
- TGI [13]: > 100 µM
- TGI [14]: > 100 µM
- TGI [15]: > 100 µM
- TGI [16]: > 100 µM
- TGI [17]: > 100 µM
- TGI [18]: > 100 µM
- TGI [19]: > 100 µM
- TGI [20]: > 100 µM
- TGI [21]: > 100 µM
- TGI [22]: > 100 µM
- TGI [23]: > 100 µM
- TGI [24]: > 100 µM
- TGI [25]: > 100 µM
- TGI [26]: > 100 µM
- TGI [27]: > 100 µM
- TGI [28]: > 100 µM
- TGI [29]: > 100 µM
- TGI [30]: > 100 µM
- TGI [31]: > 100 µM
- TGI [32]: > 100 µM
- TGI [33]: > 100 µM
- TGI [34]: > 100 µM
- TGI [35]: > 100 µM
- TGI [36]: > 100 µM
- TGI [37]: > 100 µM
- TGI [38]: > 100 µM
- TGI [39]: > 100 µM
- TGI [40]: > 100 µM
- TGI [41]: > 100 µM
- TGI [42]: > 100 µM
- TGI [43]: > 100 µM
- TGI [44]: > 100 µM
- TGI [45]: > 100 µM
- TGI [46]: > 100 µM
- TGI [47]: > 100 µM
- TGI [48]: > 100 µM
- TGI [49]: > 100 µM
- TGI [50]: > 100 µM
- TGI [51]: > 100 µM
- TGI [52]: > 100 µM
- TGI [53]: > 100 µM

Compound: c1ccc(C2=NN=C3C(c4ccccc4)=Nc4ccccc4N3C2)cc1
- TGI [1]: > 68.6 µM
- TGI [2]: > 100 µM
- TGI [3]: > 100 µM
- TGI [4]: > 70.2 µM
- TGI [5]: > 59.4 µM
- TGI [54]: > 88.9 µM
- TGI [6]: 97.9 µM
- TGI [7]: 50.4 µM
- TGI [8]: > 100 µM
- TGI [9]: 43.4 µM
- TGI [10]: 32.4 µM
- TGI [11]: 20.2 µM
- TGI [12]: 52.8 µM
- TGI [13]: > 77.4 µM
- TGI [14]: > 100 µM
- TGI [15]: > 60.2 µM
- TGI [16]: > 100 µM
- TGI [17]: > 95.6 µM
- TGI [18]: 22.2 µM
- TGI [19]: 40.8 µM
- TGI [20]: > 82.2 µM
- TGI [55]: > 100 µM
- TGI [21]: > 100 µM
- TGI [22]: > 69.6 µM
- TGI [23]: > 100 µM
- TGI [56]: > 100 µM
- TGI [24]: > 52.3 µM
- TGI [25]: > 100 µM
- TGI [26]: > 100 µM
- TGI [27]: > 100 µM
- TGI [28]: > 100 µM
- TGI [29]: 98.7 µM
- TGI [30]: > 100 µM
- TGI [31]: > 100 µM
- TGI [32]: > 100 µM
- TGI [33]: > 100 µM
- TGI [57]: > 100 µM
- TGI [34]: > 100 µM
- TGI [35]: 42 µM
- TGI [36]: 40.7 µM
- TGI [37]: 67.5 µM
- TGI [38]: > 100 µM
- TGI [39]: > 100 µM
- TGI [40]: 22.8 µM
- TGI [41]: > 24.5 µM
- TGI [43]: > 100 µM
- TGI [44]: > 94.3 µM
- TGI [45]: 23.5 µM
- TGI [46]: > 100 µM
- TGI [47]: > 100 µM
- TGI [48]: > 100 µM
- TGI [49]: > 100 µM
- TGI [50]: > 100 µM
- TGI [51]: > 100 µM
- TGI [52]: > 100 µM
- TGI [53]: > 100 µM
